Reference: patent publication US20230263822A1, “MODULATION OF FACTOR 11 EXPRESSION” (Ionis Pharmaceuticals, Inc., priority 2008, published 2023)

Assay: Hematology assays in cynomolgus monkeys (Example 45)
Assay type: in vivo
Conditions: for MCH / MCHC / MCV / RBC count / WBC count / hematocrit / hemoglobin: escalating dose regimen
Summary of the method: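 Cynomolgus monkeys (2 male, 3 female per group) dosed subcutaneously with antisense oligonucleotide or PBS, escalating 5, 10, then 25 mg/kg two to three times weekly over 12 weeks; one chronic group held at 10 mg/kg from week 4. Blood sampled weekly; necropsy on day 85.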

ISIS 417002: MOE gapmer, nucleobases 1275 to 1318 of SEQ ID NO: 1 (Table 8) (antisense GGTGCACAGTTTCTGGCAGG; MOE gapmer, wing and gap sizes not given here)
MCH (Day 64): 22 pg | MCH (Day 71): 23 pg | MCH (Day 78): 23 pg | MCH (Day 85): 23 pg | basophils (day 8): 0.3% | eosinophils (day 8): 0.2% | lymphocytes (day 8): 50% | monocytes (day 8): 3.3% | neutrophils (day 8): 46% | platelet count (day 8): 435000 µL⁻¹ | reticulocytes (day 8): 1.1% | MCH (day 8): 23 pg | MCHC (day 8): 29 g/dL | MCV (day 8): 79 fL | RBC count (day 8): 5.6e+06 µL⁻¹ | WBC count (day 8): 10000 µL⁻¹ | hematocrit (day 8): 44% | hemoglobin (day 8): 12.8 g/dL | basophils (day 15): 0.2% | eosinophils (day 15): 0.1% | lymphocytes (day 15): 40% | monocytes (day 15): 2.3% | neutrophils (day 15): 57% | platelet count (day 15): 410000 µL⁻¹ | reticulocytes (day 15): 1.1% | MCH (day 15): 23 pg | MCHC (day 15): 31 g/dL | MCV (day 15): 76 fL | RBC count (day 15): 5.4e+06 µL⁻¹ | WBC count (day 15): 10000 µL⁻¹ | hematocrit (day 15): 40% | hemoglobin (day 15): 12.3 g/dL | basophils (day 22): 0.2% | eosinophils (day 22): 0.3% | lymphocytes (day 22): 41% | monocytes (day 22): 3.1% | neutrophils (day 22): 55% | platelet count (day 22): 377000 µL⁻¹ | reticulocytes (day 22): 1.2% | MCH (day 22): 23 pg | MCHC (day 22): 29 g/dL | MCV (day 22): 79 fL | RBC count (day 22): 5.2e+06 µL⁻¹ | WBC count (day 22): 10000 µL⁻¹ | hematocrit (day 22): 41% | hemoglobin (day 22): 12.1 g/dL | basophils (day 29): 0.2% | eosinophils (day 29): 0.3% | lymphocytes (day 29): 50% | monocytes (day 29): 3.5% | neutrophils (day 29): 45% | platelet count (day 29): 410000 µL⁻¹ | reticulocytes (day 29): 1.6% | MCH (day 29): 23 pg | MCHC (day 29): 29 g/dL | MCV (day 29): 81 fL | RBC count (day 29): 5.2e+06 µL⁻¹ | WBC count (day 29): 10000 µL⁻¹ | hematocrit (day 29): 42% | hemoglobin (day 29): 12.0 g/dL | basophils (day 36): 0.2% | eosinophils (day 36): 0.2% | lymphocytes (day 36): 35% | monocytes (day 36): 2.6% | neutrophils (day 36): 61% | platelet count (day 36): 415000 µL⁻¹ | reticulocytes (day 36): 1.3% | MCH (day 36): 23 pg | MCHC (day 36): 30 g/dL | MCV (day 36): 78 fL | RBC count (day 36): 5.4e+06 µL⁻¹ | WBC count (day 36): 11000 µL⁻¹ | hematocrit (day 36): 42% | hemoglobin (day 36): 12.5 g/dL | basophils (day 43): 0.3% | eosinophils (day 43): 0.2% | lymphocytes (day 43): 39% | monocytes (day 43): 2.8% | neutrophils (day 43): 57% | platelet count (day 43): 393000 µL⁻¹ | reticulocytes (day 43): 1.1% | MCH (day 43): 23 pg | MCHC (day 43): 30 g/dL | MCV (day 43): 77 fL | RBC count (day 43): 5.4e+06 µL⁻¹ | WBC count (day 43): 10000 µL⁻¹ | hematocrit (day 43): 41% | hemoglobin (day 43): 12.3 g/dL | basophils (day 50): 0.3% | eosinophils (day 50): 0.1% | lymphocytes (day 50): 34% | monocytes (day 50): 3.1% | neutrophils (day 50): 61% | platelet count (day 50): 389000 µL⁻¹ | reticulocytes (day 50): 1.6% | MCH (day 50): 23 pg | MCHC (day 50): 29 g/dL | MCV (day 50): 80 fL | RBC count (day 50): 5.4e+06 µL⁻¹ | WBC count (day 50): 13000 µL⁻¹ | hematocrit (day 50): 43% | hemoglobin (day 50): 12.3 g/dL | basophils (day 57): 0.3% | eosinophils (day 57): 0.2% | lymphocytes (day 57): 40% | monocytes (day 57): 3.6% | neutrophils (day 57): 54% | platelet count (day 57): 403000 µL⁻¹ | reticulocytes (day 57): 4.6% | MCH (day 57): 23 pg | MCHC (day 57): 29 g/dL | MCV (day 57): 80 fL | RBC count (day 57): 4.9e+06 µL⁻¹ | WBC count (day 57): 12000 µL⁻¹ | hematocrit (day 57): 38% | hemoglobin (day 57): 11.3 g/dL | basophils (day 64): 0.2% | eosinophils (day 64): 0.2% | lymphocytes (day 64): 39% | monocytes (day 64): 4.0% | neutrophils (day 64): 55% | platelet count (day 64): 436000 µL⁻¹ | reticulocytes (day 64): 1.3% | MCHC (day 64): 30 g/dL | MCV (day 64): 76 fL | RBC count (day 64): 5.4e+06 µL⁻¹ | WBC count (day 64): 11000 µL⁻¹ | hematocrit (day 64): 41% | hemoglobin (day 64): 12.2 g/dL | basophils (day 71): 0.3% | eosinophils (day 71): 0.3% | lymphocytes (day 71): 59% | monocytes (day 71): 4.7% | neutrophils (day 71): 34% | platelet count (day 71): 490000 µL⁻¹ | reticulocytes (day 71): 1.3% | MCHC (day 71): 29 g/dL | MCV (day 71): 78 fL | RBC count (day 71): 5.5e+06 µL⁻¹ | WBC count (day 71): 12000 µL⁻¹ | hematocrit (day 71): 43% | hemoglobin (day 71): 12.5 g/dL | basophils (day 78): 0.3% | eosinophils (day 78): 0.1% | lymphocytes (day 78): 41% | monocytes (day 78): 4.7% | neutrophils (day 78): 51% | platelet count (day 78): 432000 µL⁻¹ | reticulocytes (day 78): 1.3% | MCHC (day 78): 31 g/dL | MCV (day 78): 75 fL | RBC count (day 78): 5.4e+06 µL⁻¹ | WBC count (day 78): 9000 µL⁻¹ | hematocrit (day 78): 40% | hemoglobin (day 78): 12.4 g/dL | basophils (day 85): 0.3% | eosinophils (day 85): 0.2% | lymphocytes (day 85): 56% | monocytes (day 85): 5.3% | neutrophils (day 85): 36% | platelet count (day 85): 418000 µL⁻¹ | reticulocytes (day 85): 1.4% | MCHC (day 85): 30 g/dL | MCV (day 85): 76 fL | RBC count (day 85): 5.4e+06 µL⁻¹ | WBC count (day 85): 10000 µL⁻¹ | hematocrit (day 85): 41% | hemoglobin (day 85): 12.2 g/dL | basophils (day −5): 0.3% | eosinophils (day −5): 0.3% | lymphocytes (day −5): 53% | monocytes (day −5): 3.2% | neutrophils (day −5): 43% | platelet count (day −5): 466000 µL⁻¹ | reticulocytes (day −5): 0.8% | MCH (day −5): 24 pg | MCHC (day −5): 30 g/dL | MCV (day −5): 80 fL | RBC count (day −5): 5.6e+06 µL⁻¹ | WBC count (day −5): 14000 µL⁻¹ | hematocrit (day −5): 45% | hemoglobin (day −5): 13.2 g/dL | basophils (day −14): 0.3% | eosinophils (day −14): 0.3% | lymphocytes (day −14): 53% | monocytes (day −14): 3.0% | neutrophils (day −14): 43% | platelet count (day −14): 442000 µL⁻¹ | reticulocytes (day −14): 0.9% | MCH (day −14): 24 pg | MCHC (day −14): 30 g/dL | MCV (day −14): 79 fL | RBC count (day −14): 5.6e+06 µL⁻¹ | WBC count (day −14): 13000 µL⁻¹ | hematocrit (day −14): 44% | hemoglobin (day −14): 13.0 g/dL
